Reference: US7129368B2, “Platinum carboxylate anticancer compounds” (Sonus Pharmaceuticals, Inc., priority 2004, dated 2006)

Key:
[1] = tested on: HCT-116 colorectal carcinoma cells; assay: ALAMAR BLUE cytotoxicity assay in HCT-116 cells; assay type: cell-based; conditions: HCT-116, ALAMAR BLUE, 48 hours incubation with drug
Method: (§1) ALAMAR BLUE Assay. […] Cytotoxicity was measured in two cell lines: a colorectal carcinoma cell line (HCT-116); and a non-small cell lung cancer cell line (NCI-H460). The marker used to quantify cell growth inhibition was ALAMAR BLUE, a non-fluorescent blue dye that is reduced to a fluorescent red product by viable cells. The amount of fluorescence is proportional to the number of viable cells.
(§2) Screening in HCT-116 cells. HCT-116 colorectal carcinoma cells (ATCC # CCL-247) were inoculated into a set of twenty-four 96-well microtiter plates containing 100 μl of McCoy's 5A media (HyClone, Logan, Utah) per well to a plating density of 7500 cells per well. After cell inoculation, the microtiter plates were incubated at 37° C., 5% CO2, 95% air and 100% relative humidity for 24 hours. After 24 hours incubation, ALAMAR BLUE reagent (Biosource, Camarillo, Calif.) was added to two plates to a final concentration of 10% v/v in each well. The plates were returned to the incubator for 4 hours and then read in a Perkin Elmer HTS 7000 Bio Assay Reader using an excitation wavelength of 535 nm and an emission wavelength of 590 nm to determine the cell population at the time of drug addition—time zero.
(§3) Two no-drug control plates were also prepared.
(§4) Following drug addition, the plates were incubated for an additional 48 hours at the conditions above.
(§5) After 48 hours of incubation the plates were removed and ALAMAR BLUE reagent was added to a final concentration of 10% v/v to each well. The plates were returned to the incubator for 4 hours and read in the Bio Assay Reader as described above.

[2] = tested on: NCI-H460 non-small cell lung cancer cells; assay: ALAMAR BLUE cytotoxicity assay in NCI-H460 cells; assay type: cell-based; conditions: H-460, ALAMAR BLUE, 48 hours incubation with drug
Method: as §1, §2, §3, §4, §5
Screening in NCI-H460 cells. The screening protocol above was repeated using NCI-H460 non-small cell lung cancer cells (ATCC # HTB-177) plated to a density of 10,000 cells per well in RPMI media (Mediatech, Inc., Herndon, Va.).

[3] = tested on: HT29 colorectal carcinoma cell line; assay: MTS cytotoxicity assay in HT29 cells; assay type: cell-based; conditions: 72 hours of treatment, read-out: Growth Inhibition (GI50)
Method: (§6) MTS Assay. […] Cytotoxicity was measured in six cell lines: two colorectal carcinoma cell lines, HT29 (ATCC # CCL-218) and HCT-116 (ATCC # CCL-247); two small cell lung cancer cell lines, NCI-H69 (ATCC # HTB-119) and NCI-H69/AR (ATCC # CRL-11351); and two ovarian cancer cell lines, A2780 (ECACC # 93112519) and A2780/DPPt (similar strain, A2780 cis, available at ECACC # 93112517). Viable cell number was measured using the MTS cell viability assay ([…] 96 AQueous One Solution Cell Proliferation Assay kit available from Promega, USA). Cell growth inhibition was quantified by measuring absorbance at 490 nm, which is directly proportional to the number of living cells in culture.
(§7) The platinum compounds were prepared as 10 mM stock solutions in water containing 5% dextrose (D5W). Cisplatin was prepared in saline. Dosing solutions were prepared by serial dilution of the stock solutions in cell culture medium to provide final concentrations of 0.006–100 μM.
(§8) All tumor lines were propagated under sterile conditions and incubated at 37° C. in HEPA-filtered CO2 tissue culture incubators with 5% CO2 and 95% humidity in colorless RPMI 1640 medium (Mediatech, Hemdon, Va.) containing 5% fetal bovine serum (complete medium). […]
(§9) Viable cell number was measured by the MTS dye conversion assay after a total of 72 hours of treatment. […] The absorbance was measured at 490 nm on a Coulter microplate reader.

[4] = Effect of pH on CDTA-diplatinum/CDTA-monoplatinum interconversion (HPLC); assay type: physicochemical
Method: Cyclohexane-trans-1,2-diaminetetraacetic-acid-diplatinum (CDTA-diplatinum) was prepared according to Example 1. Three solutions of CDTA-diplatinum were prepared: 1 mg/ml in water (pH ˜6.5) (Solution 1); 1 mg/ml in 0.01 N NaOH (pH˜9.5) (Solution 2); and 1 mg/ml in 0.01 N HCl (pH˜2) (Solution 3).

[5] = tested on: A2780 ovarian cancer cell line; assay: MTS cytotoxicity assay in A2780 cells; assay type: cell-based; conditions: 72 hours of treatment, read-out: Growth Inhibition (GI50)
Method: as §6, §7, §8, §9

[6] = tested on: HCT-116 colorectal carcinoma cell line; assay: MTS cytotoxicity assay in HCT-116 cells; assay type: cell-based; conditions: HCT-116, MTS, 72 hours of treatment; read-out: Growth Inhibition (GI50)
Method: as §6, §7, §8, §9

[7] = tested on: NCI-H69 small cell lung cancer cell line; assay: MTS cytotoxicity assay in NCI-H69 cells; assay type: cell-based; conditions: 72 hours of treatment, read-out: Growth Inhibition (GI50)
Method: as §6, §7, §8, §9

[8] = tested on: NCI-H69/AR small cell lung cancer cell line; assay: MTS cytotoxicity assay in NCI-H69/AR cells; assay type: cell-based; conditions: 72 hours of treatment, read-out: Growth Inhibition (GI50)
Method: as §6, §7, §8, §9

[9] = tested on: A2780/DPPt ovarian cancer cell line; assay: MTS cytotoxicity assay in A2780/DPPt cells; assay type: cell-based; conditions: A2780/DDPT, 72 hours of treatment, read-out: Growth Inhibition (GI50)
Method: MTS Assay. […] Cytotoxicity was measured in six cell lines: two colorectal carcinoma cell lines, HT29 (ATCC # CCL-218) and HCT-116 (ATCC # CCL-247); two small cell lung cancer cell lines, NCI-H69 (ATCC # HTB-119) and NCI-H69/AR (ATCC # CRL-11351); and two ovarian cancer cell lines, A2780 (ECACC # 93112519) and A2780/DPPt (similar strain, A2780 cis, available at ECACC # 93112517). Viable cell number was measured using the MTS cell viability assay ([sequence] 96 AQueous One Solution Cell Proliferation Assay kit available from Promega, USA). Cell growth inhibition was quantified by measuring absorbance at 490 nm, which is directly proportional to the number of living cells in culture.

[10] = Solution 1: 1 mg/ml in water (pH ~6.5)
[11] = Solution 2: 1 mg/ml in 0.01 N NaOH (pH ~9.5)
[12] = Solution 3: 1 mg/ml in 0.01 N HCl (pH ~2)

With `N.N.O=C([O-])C1(C(=O)[O-])CCC1.[Pt+2]` [Carboplatin, cis-diamine[1,1-cyclobutanedicarboxylato(2-)]—O,O′-platinum (II), reference compound] the GI50 [1] was 159 µM and the GI50 [2] was 9 µM.
Work on `N.N.[Cl][Pt][Cl]` [Cisplatin, cis-[PtCl2(NH3)2], reference compound] yielded a GI50 [1] of 4 µM and a GI50 [2] of 469 µM.
With “cyclohexane-trans-1,2-diaminetetraacetic-acid-diplatinum [CDTA-diplatinum]” the GI50 [3] was 78 µM, the “percentage of species by HPLC in a solution of CDTA-diplatinum (Example 1)” value (shortened to “percentage of species by HPLC”) [4, 10] was 54% and the “percentage of species by HPLC” value [4, 11] was 1%. For the same compound, the “percentage of species by HPLC” value [4, 12] was 2%, the GI50 [5] was 5.45 µM and the GI50 [6] was 24 µM. The GI50 [1] was 0.55 µM, the GI50 [7] was 6.69 µM and the GI50 [8] was 8.9 µM. The GI50 [2] was 0.371 µM and the GI50 [9] was 49 µM.
For “cyclohexane-trans-1,2-diaminetetraacetic-acid-monoplatinum [CDTA-monoplatinum]”, the GI50 [3] was 65 µM, the “percentage of species by HPLC” value [4, 10] was 45% and the “percentage of species by HPLC” value [4, 11] was 99%. The “percentage of species by HPLC” value [4, 12] was 98%, the GI50 [5] was 5.57 µM and the GI50 [6] was 38 µM. It also gave a GI50 [1] of 6.4 µM, a GI50 [7] of 10 µM and a GI50 [8] of 18 µM. It also gave a GI50 [2] of 9.71 µM.
